Reference: the kinase profiling compilation of Christmann-Franck et al. (2016)

Legend:
Assay in all cases: radiometric filter-binding kinase assay
[1] = molecular target: TBK1 (human) (UniProt Q9UHD2)
[2] = molecular target: FGFR1 (human) (UniProt P11362)
[3] = molecular target: MAP2K6 (human) (UniProt P52564)
[4] = molecular target: BRSK1 (human) (UniProt Q8TDC3)
[5] = molecular target: MAPKAPK3 (human) (UniProt Q16644)
[6] = molecular target: IKBKB (human) (UniProt O14920)
[7] = molecular target: EPHA4 (human) (UniProt P54764)
[8] = molecular target: EEF2K (human) (UniProt O00418)
Chain of EEF2K (human) (O00418 whole entry, looked up): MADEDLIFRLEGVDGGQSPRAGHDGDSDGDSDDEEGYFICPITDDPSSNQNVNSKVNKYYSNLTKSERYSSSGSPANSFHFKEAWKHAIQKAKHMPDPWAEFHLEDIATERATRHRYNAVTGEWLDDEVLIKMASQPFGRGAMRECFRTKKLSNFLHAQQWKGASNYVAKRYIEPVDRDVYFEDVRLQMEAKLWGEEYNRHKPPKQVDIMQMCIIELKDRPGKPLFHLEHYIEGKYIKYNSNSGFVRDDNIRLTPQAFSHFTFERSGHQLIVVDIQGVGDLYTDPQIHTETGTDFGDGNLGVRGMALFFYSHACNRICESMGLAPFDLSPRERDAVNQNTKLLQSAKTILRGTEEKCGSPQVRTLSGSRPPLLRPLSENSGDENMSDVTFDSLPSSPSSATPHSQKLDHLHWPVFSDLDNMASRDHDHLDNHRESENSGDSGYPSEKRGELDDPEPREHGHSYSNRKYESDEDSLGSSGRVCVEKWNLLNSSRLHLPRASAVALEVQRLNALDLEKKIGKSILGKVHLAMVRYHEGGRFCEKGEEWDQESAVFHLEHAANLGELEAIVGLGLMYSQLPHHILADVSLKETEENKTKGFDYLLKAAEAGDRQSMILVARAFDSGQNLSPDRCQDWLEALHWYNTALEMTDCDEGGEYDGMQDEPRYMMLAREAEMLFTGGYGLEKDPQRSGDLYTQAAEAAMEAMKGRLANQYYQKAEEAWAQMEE

[9] = tested on: PAK2 (human), Q13177 [T402E]
[10] = molecular target: RPS6KA5 KD1 KD2 (human) (UniProt O75582)
[11] = molecular target: PAK7 (human) (UniProt Q9P286)
Chain of PAK7 (human) (Q9P286 whole entry, looked up): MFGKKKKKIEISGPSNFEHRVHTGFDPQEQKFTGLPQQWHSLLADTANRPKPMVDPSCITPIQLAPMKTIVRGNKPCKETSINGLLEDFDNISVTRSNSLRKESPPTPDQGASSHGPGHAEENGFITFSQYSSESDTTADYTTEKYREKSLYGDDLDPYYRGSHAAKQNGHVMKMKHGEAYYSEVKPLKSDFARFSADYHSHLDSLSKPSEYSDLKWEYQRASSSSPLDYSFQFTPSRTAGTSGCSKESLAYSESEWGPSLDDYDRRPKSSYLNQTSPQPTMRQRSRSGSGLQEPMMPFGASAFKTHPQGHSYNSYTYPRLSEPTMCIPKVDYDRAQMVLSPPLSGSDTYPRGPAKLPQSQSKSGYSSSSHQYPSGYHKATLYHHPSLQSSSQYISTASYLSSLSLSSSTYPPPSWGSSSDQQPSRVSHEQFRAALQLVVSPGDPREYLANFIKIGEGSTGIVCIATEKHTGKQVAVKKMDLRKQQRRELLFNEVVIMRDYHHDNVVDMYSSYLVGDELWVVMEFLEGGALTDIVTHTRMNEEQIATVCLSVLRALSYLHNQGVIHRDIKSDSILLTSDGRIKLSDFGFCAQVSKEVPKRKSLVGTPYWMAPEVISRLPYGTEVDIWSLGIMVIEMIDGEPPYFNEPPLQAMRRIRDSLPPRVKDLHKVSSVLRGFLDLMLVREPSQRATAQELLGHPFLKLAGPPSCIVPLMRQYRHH

[12] = tested on: AKT1 (human), P31749 [S473D]
[13] = molecular target: MKNK2 (human) (UniProt Q9HBH9)
[14] = molecular target: MAPK8 (human) (UniProt P45983)
[15] = molecular target: PLK1 (human) (UniProt P53350)
[16] = molecular target: CSK (human) (UniProt P41240)
[17] = molecular target: MAP3K5 (human) (UniProt Q99683)
[18] = molecular target: MAPK3 (human) (UniProt P27361)
Chain of MAPK3 (human) (P27361 whole entry, looked up): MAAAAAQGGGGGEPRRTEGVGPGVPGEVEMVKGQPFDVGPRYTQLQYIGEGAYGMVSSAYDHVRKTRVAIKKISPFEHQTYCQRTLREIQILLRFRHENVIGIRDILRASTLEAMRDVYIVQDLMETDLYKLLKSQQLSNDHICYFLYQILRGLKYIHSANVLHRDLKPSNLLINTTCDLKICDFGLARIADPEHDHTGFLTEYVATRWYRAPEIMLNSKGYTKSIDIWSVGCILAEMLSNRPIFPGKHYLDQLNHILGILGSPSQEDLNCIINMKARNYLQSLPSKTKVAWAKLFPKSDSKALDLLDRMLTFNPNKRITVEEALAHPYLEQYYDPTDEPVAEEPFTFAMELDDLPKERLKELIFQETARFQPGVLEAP

[19] = molecular target: CSNK1D (human) (UniProt P48730)
[20] = molecular target: AURKA (human) (UniProt O14965)
[21] = molecular target: NEK6 (human) (UniProt Q9HC98)
[22] = molecular target: BRSK2 (human) (UniProt Q8IWQ3)
[23] = molecular target: HIPK3 (human) (UniProt Q9H422)
[24] = molecular target: MAPK1 (human) (UniProt P28482)
Chain of MAPK1 (human) (P28482 whole entry, looked up): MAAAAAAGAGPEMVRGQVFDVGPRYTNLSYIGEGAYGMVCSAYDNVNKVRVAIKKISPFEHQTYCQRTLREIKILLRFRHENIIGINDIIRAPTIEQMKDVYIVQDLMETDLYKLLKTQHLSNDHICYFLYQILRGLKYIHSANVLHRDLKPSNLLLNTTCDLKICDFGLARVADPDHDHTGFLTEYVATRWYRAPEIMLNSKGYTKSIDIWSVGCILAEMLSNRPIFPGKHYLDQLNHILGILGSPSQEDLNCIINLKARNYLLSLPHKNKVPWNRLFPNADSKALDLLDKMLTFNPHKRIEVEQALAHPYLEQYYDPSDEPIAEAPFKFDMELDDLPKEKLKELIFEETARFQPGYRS

[25] = molecular target: MAPK15 (human) (UniProt Q8TD08)
[26] = molecular target: BTK (human) (UniProt Q06187)
[27] = molecular target: HIPK1 (human) (UniProt Q86Z02)
[28] = molecular target: MAP2K2 (human) (UniProt P36507)
[29] = molecular target: GSK3B (human) (UniProt P49841)
[30] = molecular target: STK11 CAB39 STRADA (human) (UniProt Q9Y376+Q7RTN6+Q15831)
Chain of STK11 CAB39 STRADA (human) (Q15831 whole entry, looked up): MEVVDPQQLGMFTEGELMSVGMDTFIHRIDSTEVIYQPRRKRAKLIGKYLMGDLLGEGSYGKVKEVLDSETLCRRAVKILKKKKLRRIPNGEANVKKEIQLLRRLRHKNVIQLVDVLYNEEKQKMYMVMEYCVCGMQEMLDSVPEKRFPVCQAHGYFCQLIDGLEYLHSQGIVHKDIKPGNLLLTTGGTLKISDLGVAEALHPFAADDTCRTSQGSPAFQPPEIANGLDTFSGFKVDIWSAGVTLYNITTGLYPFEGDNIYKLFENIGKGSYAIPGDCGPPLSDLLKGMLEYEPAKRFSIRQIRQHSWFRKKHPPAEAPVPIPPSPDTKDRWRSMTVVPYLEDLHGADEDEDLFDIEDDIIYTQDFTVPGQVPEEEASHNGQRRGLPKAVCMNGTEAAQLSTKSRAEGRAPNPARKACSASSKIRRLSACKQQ
Chain of STK11 CAB39 STRADA (human) (Q7RTN6 whole entry, looked up): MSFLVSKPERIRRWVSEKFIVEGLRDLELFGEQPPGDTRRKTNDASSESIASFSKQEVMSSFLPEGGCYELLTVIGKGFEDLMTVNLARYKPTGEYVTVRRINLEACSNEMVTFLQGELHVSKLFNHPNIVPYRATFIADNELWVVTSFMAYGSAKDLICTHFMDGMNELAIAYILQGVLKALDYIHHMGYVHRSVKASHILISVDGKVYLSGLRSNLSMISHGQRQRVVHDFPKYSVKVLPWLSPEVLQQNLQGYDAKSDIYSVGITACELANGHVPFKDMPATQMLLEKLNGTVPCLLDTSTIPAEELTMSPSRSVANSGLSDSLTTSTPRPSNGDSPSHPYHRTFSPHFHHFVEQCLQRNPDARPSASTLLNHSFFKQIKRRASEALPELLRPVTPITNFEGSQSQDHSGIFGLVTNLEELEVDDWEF
Chain of STK11 CAB39 STRADA (human) (Q9Y376 whole entry, looked up): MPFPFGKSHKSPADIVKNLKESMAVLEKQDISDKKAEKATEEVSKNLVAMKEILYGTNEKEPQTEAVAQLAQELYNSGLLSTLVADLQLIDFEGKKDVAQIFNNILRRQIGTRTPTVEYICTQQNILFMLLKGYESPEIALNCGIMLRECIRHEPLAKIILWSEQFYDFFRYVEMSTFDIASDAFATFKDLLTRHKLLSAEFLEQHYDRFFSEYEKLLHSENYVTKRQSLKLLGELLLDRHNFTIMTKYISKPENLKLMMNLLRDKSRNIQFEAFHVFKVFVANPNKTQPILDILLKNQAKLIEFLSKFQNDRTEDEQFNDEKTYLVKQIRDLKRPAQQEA

[31] = molecular target: MAP3K1 (human) (UniProt Q13233)
[32] = molecular target: ERBB4 (human) (UniProt Q15303)
[33] = molecular target: SRPK1 (human) (UniProt Q96SB4)
[34] = molecular target: MAPK9 (human) (UniProt P45984)
[35] = molecular target: RPS6KA3 KD1 KD2 (human) (UniProt P51812)

Chain of FGFR1 (human) (P11362 whole entry, looked up): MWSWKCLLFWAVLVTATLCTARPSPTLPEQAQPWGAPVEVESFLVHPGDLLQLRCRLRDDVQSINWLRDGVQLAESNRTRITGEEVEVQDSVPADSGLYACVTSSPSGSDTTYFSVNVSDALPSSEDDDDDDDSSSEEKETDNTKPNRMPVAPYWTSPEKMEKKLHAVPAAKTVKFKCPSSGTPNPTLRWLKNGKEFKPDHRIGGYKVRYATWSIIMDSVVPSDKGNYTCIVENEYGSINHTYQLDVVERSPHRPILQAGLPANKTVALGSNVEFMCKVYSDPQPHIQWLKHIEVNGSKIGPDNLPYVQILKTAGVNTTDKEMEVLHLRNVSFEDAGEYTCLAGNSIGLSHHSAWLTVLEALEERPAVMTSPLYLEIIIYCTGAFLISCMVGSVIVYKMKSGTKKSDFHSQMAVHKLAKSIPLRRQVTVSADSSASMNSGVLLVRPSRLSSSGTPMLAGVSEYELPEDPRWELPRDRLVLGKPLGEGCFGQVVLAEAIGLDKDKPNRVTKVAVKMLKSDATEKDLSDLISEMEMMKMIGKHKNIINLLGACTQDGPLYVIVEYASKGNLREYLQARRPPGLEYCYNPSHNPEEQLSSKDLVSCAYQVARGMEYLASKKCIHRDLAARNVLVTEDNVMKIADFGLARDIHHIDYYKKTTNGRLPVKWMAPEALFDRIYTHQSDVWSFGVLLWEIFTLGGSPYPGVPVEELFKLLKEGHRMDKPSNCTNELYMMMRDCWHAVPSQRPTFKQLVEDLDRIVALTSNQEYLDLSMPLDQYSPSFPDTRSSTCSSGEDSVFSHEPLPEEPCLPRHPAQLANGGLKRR
Chain of TBK1 (human) (Q9UHD2 whole entry, looked up): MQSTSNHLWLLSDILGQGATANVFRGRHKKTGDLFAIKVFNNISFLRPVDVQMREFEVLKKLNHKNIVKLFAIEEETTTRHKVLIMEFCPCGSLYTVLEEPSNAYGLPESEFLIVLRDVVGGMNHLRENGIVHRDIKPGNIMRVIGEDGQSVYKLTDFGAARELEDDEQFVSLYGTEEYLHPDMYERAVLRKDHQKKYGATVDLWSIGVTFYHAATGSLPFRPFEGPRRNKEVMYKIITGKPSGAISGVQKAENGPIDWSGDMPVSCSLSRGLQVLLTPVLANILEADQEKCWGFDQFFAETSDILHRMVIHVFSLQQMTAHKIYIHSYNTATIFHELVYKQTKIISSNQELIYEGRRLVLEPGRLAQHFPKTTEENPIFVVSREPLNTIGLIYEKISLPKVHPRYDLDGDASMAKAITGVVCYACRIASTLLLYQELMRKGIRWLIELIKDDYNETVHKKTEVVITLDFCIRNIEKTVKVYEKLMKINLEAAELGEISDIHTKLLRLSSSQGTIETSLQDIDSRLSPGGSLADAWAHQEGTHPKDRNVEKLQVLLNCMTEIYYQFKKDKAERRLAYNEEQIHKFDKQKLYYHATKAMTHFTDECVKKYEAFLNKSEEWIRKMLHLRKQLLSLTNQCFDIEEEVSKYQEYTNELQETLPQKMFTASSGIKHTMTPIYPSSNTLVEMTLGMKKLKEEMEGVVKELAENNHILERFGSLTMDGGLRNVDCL

residual activity ([1]; compound 0.1 µM): 74% | residual activity ([1]; compound 1.0 µM): 62% | residual activity ([1]; compound 10.0 µM): 26% | residual activity ([2]; compound 0.1 µM): 69% | residual activity ([2]; compound 1.0 µM): 20% | residual activity ([2]; compound 10.0 µM): 8% | residual activity ([3]; compound 0.1 µM): 87% | residual activity ([3]; compound 1.0 µM): 89% | residual activity ([3]; compound 10.0 µM): 104% | residual activity ([4]; compound 0.1 µM): 88% | residual activity ([4]; compound 1.0 µM): 85% | residual activity ([4]; compound 10.0 µM): 57% | residual activity ([5]; compound 0.1 µM): 80% | residual activity ([5]; compound 1.0 µM): 79% | residual activity ([5]; compound 10.0 µM): 86% | residual activity ([6]; compound 1.0 µM): 98% | residual activity ([6]; compound 10.0 µM): 83% | residual activity ([7]; compound 0.1 µM): 84% | residual activity ([7]; compound 1.0 µM): 83% | residual activity ([7]; compound 10.0 µM): 57% | residual activity ([8]; compound 0.1 µM): 95% | residual activity ([8]; compound 1.0 µM): 96% | residual activity ([8]; compound 10.0 µM): 79% | residual activity ([9]; compound 0.1 µM): 100% | residual activity ([9]; compound 10.0 µM): 94% | residual activity ([10]; compound 0.1 µM): 91% | residual activity ([10]; compound 1.0 µM): 83% | residual activity ([10]; compound 10.0 µM): 87% | residual activity ([11]; compound 0.1 µM): 95% | residual activity ([11]; compound 1.0 µM): 82% | residual activity ([11]; compound 10.0 µM): 72% | residual activity ([12]; compound 0.1 µM): 102% | residual activity ([12]; compound 1.0 µM): 103% | residual activity ([13]; compound 0.1 µM): 90% | residual activity ([13]; compound 1.0 µM): 60% | residual activity ([13]; compound 10.0 µM): 34% | residual activity ([14]; compound 0.1 µM): 89% | residual activity ([14]; compound 1.0 µM): 101% | residual activity ([14]; compound 10.0 µM): 78% | residual activity ([15]; compound 0.1 µM): 97% | residual activity ([15]; compound 1.0 µM): 100% | residual activity ([15]; compound 10.0 µM): 91% | residual activity ([16]; compound 0.1 µM): 95% | residual activity ([16]; compound 1.0 µM): 103% | residual activity ([16]; compound 10.0 µM): 72% | residual activity ([17]; compound 0.1 µM): 93% | residual activity ([17]; compound 1.0 µM): 90% | residual activity ([17]; compound 10.0 µM): 91% | residual activity ([18]; compound 0.1 µM): 89% | residual activity ([18]; compound 1.0 µM): 97% | residual activity ([18]; compound 10.0 µM): 90% | residual activity ([19]; compound 0.1 µM): 91% | residual activity ([19]; compound 1.0 µM): 69% | residual activity ([19]; compound 10.0 µM): 22% | residual activity ([20]; compound 0.1 µM): 100% | residual activity ([20]; compound 1.0 µM): 91% | residual activity ([20]; compound 10.0 µM): 56% | residual activity ([21]; compound 0.1 µM): 80% | residual activity ([21]; compound 1.0 µM): 83% | residual activity ([21]; compound 10.0 µM): 88% | residual activity ([22]; compound 0.1 µM): 88% | residual activity ([22]; compound 1.0 µM): 68% | residual activity ([22]; compound 10.0 µM): 20% | residual activity ([23]; compound 0.1 µM): 104% | residual activity ([23]; compound 10.0 µM): 90% | residual activity ([24]; compound 0.1 µM): 89% | residual activity ([24]; compound 1.0 µM): 89% | residual activity ([24]; compound 10.0 µM): 107% | residual activity ([26]; compound 0.1 µM): 111% | residual activity ([26]; compound 1.0 µM): 94% | residual activity ([26]; compound 10.0 µM): 52% | residual activity ([27]; compound 0.1 µM): 97% | residual activity ([27]; compound 1.0 µM): 99% | residual activity ([27]; compound 10.0 µM): 85% | residual activity ([28]; compound 0.1 µM): 88% | residual activity ([28]; compound 1.0 µM): 91% | residual activity ([28]; compound 10.0 µM): 52% | residual activity ([29]; compound 0.1 µM): 81% | residual activity ([29]; compound 1.0 µM): 83% | residual activity ([29]; compound 10.0 µM): 62% | residual activity ([30]; compound 0.1 µM): 109% | residual activity ([30]; compound 1.0 µM): 98% | residual activity ([30]; compound 10.0 µM): 80% | residual activity ([31]; compound 0.1 µM): 90% | residual activity ([31]; compound 1.0 µM): 83% | residual activity ([31]; compound 10.0 µM): 60% | residual activity ([32]; compound 0.1 µM): 88% | residual activity ([32]; compound 1.0 µM): 76% | residual activity ([32]; compound 10.0 µM): 56% | residual activity ([33]; compound 0.1 µM): 95% | residual activity ([33]; compound 1.0 µM): 116% | residual activity ([33]; compound 10.0 µM): 79% | residual activity ([34]; compound 0.1 µM): 88% | residual activity ([34]; compound 1.0 µM): 103% | residual activity ([34]; compound 10.0 µM): 83% | residual activity ([35]; compound 0.1 µM): 73% | residual activity ([35]; compound 1.0 µM): 69% | residual activity ([35]; compound 10.0 µM): 57%
SMILES: c1ccc2c(-c3cnn4cc(-c5ccc(N6CCNCC6)cc5)cnc34)ccnc2c1
residual activity ([25]; compound 0.1 µM): 87% | residual activity ([25]; compound 1.0 µM): 49% | residual activity ([25]; compound 10.0 µM): 11%
